{"source": "patent US12559509B1", "about": "“Citrate coordination complex of an orally-delivered beta-lactamase inhibitor and uses thereof” (priority 2023, dated 2026)", "assay": "Dynamic Vapor Sorption (DVS) analysis", "format": "physicochemical", "procedure": "Moisture sorption/desorption data were collected on a DVS-intrinsic vapor sorption analyzer (Surface Measurement Systems NA, Allentown, PA, USA) and operated with DVS-intrinsic control software (Version 1.0.5.1). Samples were not dried prior to analysis. Sorption and desorption data were collected over a range from 5% to 98% relative humidity (RH) via 10% RH increments under a nitrogen purge. The equilibrium criterion used for analysis was less than 0.005% weight change in 10 min with a maximum equilibration time of 3 h.\nThe DVS isotherm of Form B is qualitatively similar to that of Form A. Form B lost 0.1 wt % upon equilibration at ˜0% RH.", "note": "Where a name gives a salt, the structure may show the parent alone."}
{"smiles": "CCC(=O)N[C@@H](Cc1cccc(C(=O)OCOC(=O)C(CC)CC)c1O)B1OC(=O)C(CC(=O)O)(CC(=O)O)O1", "note": "[(R)-(2-(3-((((2-ethylbutanoyl)oxy)methoxy)carbonyl)-2-hydroxyphenyl)-1-propionamidoethyl)boronic acid citrate]", "values": [{"measurement": "solid form after DVS cycle, by XRPD", "setting": "0% RH to 98% RH and back to 0% RH", "result": "remained crystalline, as Form A"}, {"measurement": "hygroscopicity (in words)", "setting": "0-85% RH", "result": "non-hygroscopic"}, {"measurement": "Change In Mass (%)-ref, Desorption", "setting": "Target RH 0.0 %", "result": "−0.023", "unit": "%"}, {"measurement": "Change In Mass (%)-ref, Sorption", "setting": "Target RH 0.0 %", "result": 0.000, "unit": "%"}, {"measurement": "Change In Mass (%)-ref, Desorption", "setting": "Target RH 5.0 %", "result": 0.012, "unit": "%"}, {"measurement": "Change In Mass (%)-ref, Hysteresis", "setting": "Target RH 5.0 %", "result": "−0.006", "unit": "%"}, {"measurement": "Change In Mass (%)-ref, Sorption", "setting": "Target RH 5.0 %", "result": 0.019, "unit": "%"}, {"measurement": "Change In Mass (%)-ref, Desorption", "setting": "Target RH 15.0 %", "result": 0.065, "unit": "%"}, {"measurement": "Change In Mass (%)-ref, Hysteresis", "setting": "Target RH 15.0 %", "result": "−0.008", "unit": "%"}, {"measurement": "Change In Mass (%)-ref, Sorption", "setting": "Target RH 15.0 %", "result": 0.073, "unit": "%"}, {"measurement": "Change In Mass (%)-ref, Desorption", "setting": "Target RH 25.0 %", "result": 0.119, "unit": "%"}, {"measurement": "Change In Mass (%)-ref, Hysteresis", "setting": "Target RH 25.0 %", "result": "−0.003", "unit": "%"}, {"measurement": "Change In Mass (%)-ref, Sorption", "setting": "Target RH 25.0 %", "result": 0.121, "unit": "%"}, {"measurement": "Change In Mass (%)-ref, Desorption", "setting": "Target RH 35.0 %", "result": 0.167, "unit": "%"}, {"measurement": "Change In Mass (%)-ref, Hysteresis", "setting": "Target RH 35.0 %", "result": 0.008, "unit": "%"}, {"measurement": "Change In Mass (%)-ref, Sorption", "setting": "Target RH 35.0 %", "result": 0.159, "unit": "%"}, {"measurement": "Change In Mass (%)-ref, Desorption", "setting": "Target RH 45.0 %", "result": 0.218, "unit": "%"}, {"measurement": "Change In Mass (%)-ref, Hysteresis", "setting": "Target RH 45.0 %", "result": 0.013, "unit": "%"}, {"measurement": "Change In Mass (%)-ref, Sorption", "setting": "Target RH 45.0 %", "result": 0.205, "unit": "%"}, {"measurement": "Change In Mass (%)-ref, Desorption", "setting": "Target RH 55.0 %", "result": 0.279, "unit": "%"}, {"measurement": "Change In Mass (%)-ref, Hysteresis", "setting": "Target RH 55.0 %", "result": 0.019, "unit": "%"}, {"measurement": "Change In Mass (%)-ref, Sorption", "setting": "Target RH 55.0 %", "result": 0.259, "unit": "%"}, {"measurement": "Change In Mass (%)-ref, Desorption", "setting": "Target RH 65.0 %", "result": 0.356, "unit": "%"}, {"measurement": "Change In Mass (%)-ref, Hysteresis", "setting": "Target RH 65.0 %", "result": 0.038, "unit": "%"}, {"measurement": "Change In Mass (%)-ref, Sorption", "setting": "Target RH 65.0 %", "result": 0.318, "unit": "%"}, {"measurement": "Change In Mass (%)-ref, Desorption", "setting": "Target RH 85.0 %", "result": 0.604, "unit": "%"}, {"measurement": "Change In Mass (%)-ref, Hysteresis", "setting": "Target RH 85.0 %", "result": 0.102, "unit": "%"}, {"measurement": "Change In Mass (%)-ref, Sorption", "setting": "Target RH 85.0 %", "result": 0.502, "unit": "%"}, {"measurement": "Change In Mass (%)-ref, Desorption", "setting": "Target RH 95.0 %", "result": 4.054, "unit": "%"}, {"measurement": "Change In Mass (%)-ref, Hysteresis", "setting": "Target RH 95.0 %", "result": 0.764, "unit": "%"}, {"measurement": "Change In Mass (%)-ref, Sorption", "setting": "Target RH 95.0 %", "result": 3.289, "unit": "%"}, {"measurement": "Change In Mass (%)-ref, Desorption", "setting": "Target RH 98.0 %", "result": 4.006, "unit": "%"}, {"measurement": "Change In Mass (%)-ref, Sorption", "setting": "Target RH 98.0 %", "result": 4.006, "unit": "%"}, {"measurement": "Change In Mass (%)-ref, Desorption", "setting": "Target RH […]", "result": 0.457, "unit": "%"}, {"measurement": "Change In Mass (%)-ref, Hysteresis", "setting": "Target RH […]", "result": 0.056, "unit": "%"}, {"measurement": "Change In Mass (%)-ref, Sorption", "setting": "Target RH […]", "result": 0.401, "unit": "%"}, {"measurement": "weight gain", "setting": "above 85% RH (up to 98% RH)", "result": 4.0, "unit": "%"}, {"measurement": "weight gain with increasing RH", "setting": "between 0% RH and 85% RH", "result": 0.5, "unit": "wt %"}]}
